Experimental data: patent publication US11771086B2, “Pest control composition including novel iminopyridine derivative” (priority 2012, dated 2023)
Where two headings read alike, the source gives them in different places.

Tests used:
Aphis gossypii = assay: whole plant or invertebrate; format: in vivo
Protocol: The test was performed in duplicate.
(§1) Method for Judging Synergistic Effects

Spodoptera litura = assay: whole plant or invertebrate; format: in vivo; conditions: for Theoretical value by Colby's equation: Spodoptera litura; for Mortality of single agent against Spodoptera litura: cabbage leaf disk spray, three days
Protocol: After an air drying process, third instar larvae were released thereto. […] The test was performed in duplicate.
as §1

Plutella xylostella = assay: whole plant or invertebrate; format: in vivo
Protocol: After an air drying process, second instar larvae were released thereto. […] The test was performed in duplicate.
as §1

rice blast = format: in vivo; conditions: single agent 0.5 ppm; foliar application; fourteen days after inoculation
Rhizoctonia solani = assay: Test Example 12 Test of control of rice sheath blight (Rhizoctonia solani); format: in vivo; conditions: single agent 5 ppm; foliar spray; six days after inoculation
Laodelphax striatellus = assay: Test Example 14 Test with Laodelphax striatellus by soil irrigation treatment (mixture with paddy herbicide); format: in vivo; conditions: single agent 0.05 mg/seedling, five days after release
Protocol: After standing for three days, second instar larvae were released thereto. […] The test was performed in duplicate.

Naranga aenescens = format: in vivo; conditions: for Mortality of single agent against Naranga aenescens: soil irrigation, five days after release
Protocol: After standing for 3 days, first instar larvae were released thereto. […] The test was performed in duplicate.
as §1

Chilo suppressalis = format: in vivo; conditions: for Mortality of single agent against Chilo suppressalis: soil irrigation, six days after release
Protocol: After standing for 3 days, second instar larvae were released thereto. […] The test was performed in duplicate.
as §1

Laodelphax striatella = assay: whole plant or invertebrate; conditions: for mortality at 0.005 mg/seedling: read-out: Mortality of single agent against Laodelphax striatella, single agent 0.005 mg/Seedling; for Theoretical value by Colby's equation: Laodelphax striatella soil irrigation, single agent 0.5 mg/Seedling (other component 0); for Mortality of single agent against Laodelphax striatella: single agent 0.5 mg/Seedling
Protocol: (§2) After the rice seedling was left to stand for 3 days, second instar larvae were released thereto. Thereafter, the larvae were left to stand in a thermostatic chamber (16 hours of light period-8 hours of dark period) at 25° C. […] The test was performed in duplicate. Mortality of larvae (%)={number of dead larvae/(number of survived larvae+number of dead larvae)}×100
B: 100−(mortality of larvae or adults when treated only with each of imidacloprid, fipronil, chlorantraniliprole, spinosad, clothianidin, dinotefuran, sulfoxaflor, pymetrozine, thiamethoxam, flupyradifurone and cycloxaprid))
as §1
When the mortality against Laodelphax striatella in the case of a mixture with another agent exceeded the theoretical value by the Colby's equation, a synergistic effect was judged to be present.

Callosobruchus chinensis = format: in vivo; conditions: single agent 0.2 ng/head; topical; one day
Protocol: A compound of Formula (I) and the insecticide indicated below, prepared in predetermined concentrations using acetone, were separately topically applied to the back of the same adult Callosobruchus chinensis. […] The test was performed in duplicate. Insect mortality (%)={number of dead insects/(number of survived insects+number of dead insects)}×100
(A: 100−(insect mortality for treatment with only Compound P212)
B: 100−(insect mortality for treatment with only the insecticide fipronil or imidacloprid))
as §1

[1] = system: Nilaparvata lugens resistant population I; assay: Reference Test Example 19 Pest control test of Nilaparvata lugens, resistant population I (soil drench); format: in vivo
Protocol: (§3) Three days after the treatment, ten second instar larvae of Nilaparvata lugens, which had been collected outdoors and proliferated indoors, were each released to the rice seedling. […] Test in duplicate.
(§4) Furthermore, for comparison, the test against a species of Nilaparvata lugens which is highly susceptible to imidacloprid was performed by the same method as described above, and the results thereof are shown in Table 45. […] Meanwhile, the death rates of imidacloprid at 0.05 mg/seedling were (susceptible species) 100%, (resistant population I) 38% and (resistant population II) 69%, and the insecticidal effect thereof was also low even at a high dose. From the above results, it became obvious that Compound P212 and Compound 1-20 have high insecticidal effects even against Nilaparvata lugens resistance against imidacloprid.
(§5) Further, for the origin of test pests, bugs collected outdoors from the Kumamoto prefecture (I) in 2007 and from the Fukuoka prefecture (II) in 2005 as resistant population of Nilaparvata lugens, and bugs collected from the Kagoshima prefecture and then successively reared indoors for a long time as the imidacloprid susceptible population of Nilaparvata lugens were used.

[2] = system: Frankliniella occidentalis; assay: whole plant or invertebrate
Protocol: as §2, with “an air drying process, first” for “the rice seedling was left to stand for 3 days, second”
(A: 100−(mortality of larvae or adults when treated only with Compound P212)
B: 100−(mortality of larvae or adults when treated with only the insecticide imidacloprid, dinotefuran, or acetamiprid))
as §1
When the mortality against Frankliniella occidentalis in the case of a mixture with another agent exceeded the theoretical value given by Colby's equation, a synergistic effect was judged to be present.

[3] = system: Nilaparvata lugens resistant population II; assay: Reference Test Example 19 Pest control test of Nilaparvata lugens, resistant population II (soil drench); format: in vivo; conditions: for Insecticidal effects against Nilaparvata lugens (death rate %), Resistant population II: soil drench, six days
Protocol: as §3, §4, §5

[4] = system: Haemaphysalis longicornis; assay: whole plant or invertebrate; format: in vivo; conditions: Haemaphysalis longicornis, topical, 120 h, read-out: Mortality of single agent against Haemaphysalis longicornis, single agent 1.9 μg; capsule on mouse; five days; mortality and agonal rate
Protocol: A capsule with a diameter of 2 cm and a height of 2 cm was attached to the dorsal surface of a mouse. A compound of Formula (I), ivermectin, moxidectin, permethrin, amitraz, fipronil, spinetram and the mixture of the compound of Formula (I) and each insecticide were dissolved in ethanol at the concentrations given in […], and each of these was dripped onto the surface of a mouse body within a capsule. After thorough drying, eight Haemaphysalis longicornis nymphs were released and the top of the capsule was sealed with a lid. The mouse was kept in a cage at 25° C. using a 12-hour light period and a 12-hour dark period. Five days after the release, the capsule was removed and the number of surviving and dead nymphs and the number of engorged individuals were counted and the insect mortality and agonal rate was calculated by the following equation. Insect mortality and agonal rate (%)={number of dead and agonal insects/(number of survived insects+number of dead and agonal insects)}×100

[5] = system: Nilaparvata lugens susceptible species (highly susceptible to imidacloprid); assay: Reference Test Example 19 Pest control test of Nilaparvata lugens, imidacloprid susceptible species (soil drench); format: in vivo; conditions: for Insecticidal effects against Nilaparvata lugens (death rate %), Susceptible population: soil drench, six days
Protocol: as §3, §4, §5

[6] = Laodelphax striatellus, soil, 72 h, soil irrigation

C[C@]1(COC(=O)C2CC2)[C@@H]2C[C@H](O)[C@@]3(C)Oc4cc(-c5cccnc5)oc(=O)c4[C@H](O)[C@@H]3[C@@]2(C)CC[C@@H]1OC(=O)C1CC1 [Afidopyropen]
Theoretical value by Colby's equation (Aphis gossypii; Aphis gossypii, single agent 0.002 ppm (other component 0)): 25%
Mortality of single agent against Aphis gossypii (Aphis gossypii; single agent 0.002 ppm, cucumber leaf disk spray, three days): 25%
Theoretical value by Colby's equation (Spodoptera litura; single agent 5 ppm (other component 0)): 0%
Theoretical value by Colby's equation (Spodoptera litura; single agent 10 ppm (other component 0)): 0%
Mortality of single agent against Spodoptera litura (Spodoptera litura; single agent 5 ppm): 0%
Mortality of single agent against Spodoptera litura (Spodoptera litura; single agent 10 ppm): 0%
Theoretical value by Colby's equation (Plutella xylostella; Plutella xylostella, single agent 5 ppm (other component 0)): 0%
Theoretical value by Colby's equation (Plutella xylostella; Plutella xylostella, single agent 10 ppm (other component 0)): 20%
Mortality of single agent against Plutella xylostella (Plutella xylostella; single agent 5 ppm, cabbage leaf disk spray, three days): 0%
Mortality of single agent against Plutella xylostella (Plutella xylostella; single agent 10 ppm, cabbage leaf disk spray, three days): 20%

CO/C=C(/C(=O)OC)c1ccccc1Oc1cc(Oc2ccccc2C#N)ncn1 [Azoxystrobin]
Preventive value (Rice blast test, number of lesions) (rice blast): 37
Preventive value (Sheath blight test, lesion height) (Rhizoctonia solani): 95

CCN(CC)C(=O)n1cnc(S(=O)(=O)c2c(C)cc(C)cc2C)n1 [Cafenstrole]
Mortality of larvae (Laodelphax striatellus) (Laodelphax striatellus): 0%

CCCCOC(=O)[C@@H](C)Oc1ccc(Oc2ccc(C#N)cc2F)cc1 [Cyhalofop-butyl]
Mortality of larvae (Laodelphax striatellus) (Laodelphax striatellus): 0%

Cc1ccc(NC(=O)NC(C)(C)c2ccccc2)cc1 [Daimuron]
Mortality of larvae (Laodelphax striatellus) (Laodelphax striatellus): 0%

N#Cc1nn(-c2c(Cl)cc(C(F)(F)F)cc2Cl)c(N)c1[S+]([O-])C(F)(F)F (stereo not drawn) [Fipronil]
Mortality of single agent against Naranga aenescens (Naranga aenescens; single agent 0.01 mg/seedling): 20%
Mortality of single agent against Chilo suppressalis (Chilo suppressalis; single agent 0.0005 mg/seedling): 40%
mortality at 0.001 mg/seedling (Laodelphax striatella; Laodelphax striatellus, soil, 72 h, read-out: Mortality of single agent against Laodelphax striatella, single agent 0.001 mg/Seedling, soil irrigation): 0%
mortality at 0.005 mg/seedling (Laodelphax striatella; [6]): 26%
Theoretical value by Colby's equation (Plutella xylostella; 0.04 ppm): 50%
mortality at 0.04 ppm (Plutella xylostella; Plutella xylostella, foliar, 72 h, read-out: Mortality of single agent against Plutella xylostella, single agent 0.04 ppm, cabbage leaf disk spray, three days): 50%
Mortality of single agent against Callosobruchus chinensis (Callosobruchus chinensis): 0%

CNC(=O)/C(=N/OC)c1ccccc1CO/N=C(C)/C(=N/OC)C(/C)=N/OC [Orysastrobin]
Theoretical value by Colby's equation (Laodelphax striatella): 4%
Mortality of single agent against Laodelphax striatella (Laodelphax striatella; soil irrigation): 4%
Preventive value (Rice blast test, number of lesions) (rice blast): 20
Preventive value (Sheath blight test, lesion height) (Rhizoctonia solani): 72

OCC1=C[C@H](N[C@H]2C[C@H](CO)[C@@H](O[C@@H]3O[C@H](CO)[C@@H](O)[C@H](O)[C@H]3O)[C@H](O)[C@H]2O)[C@H](O)[C@@H](O)[C@@H]1O [Validamycin]
Preventive value (Sheath blight test, lesion height) (Rhizoctonia solani): 32

O=[N+]([O-])NC1=NCCN1Cc1ccc(Cl)nc1 [imidacloprid, reference compound]
death rates ([1]; resistant population I, 0.05 mg/seedling, six days after the release): 38%
Insecticidal effects against Nilaparvata lugens (death rate %), Resistant population I ([1]; throughput 0.05 mg/seedling, soil drench, six days): 38%
Theoretical value by Colby's equation ([2]; 20 ppm): 69%
mortality at 20 ppm ([2]; Frankliniella occidentalis, foliar, 72 h, read-out: Mortality of single agent against Frankliniella occidentalis): 69%
death rates ([3]; resistant population II, 0.05 mg/seedling, six days after the release): 69%
Insecticidal effects against Nilaparvata lugens (death rate %), Resistant population II ([3]; throughput 0.01 mg/seedling): 39%
Insecticidal effects against Nilaparvata lugens (death rate %), Resistant population II ([3]; throughput 0.05 mg/seedling): 69%
mortality at 0.0019 mg [4]: 7.7%
mortality at 0.005 mg/seedling (Laodelphax striatella; [6]): 0%
death rates ([5]; susceptible species, 0.05 mg/seedling, six days after the release): 100%
Insecticidal effects against Nilaparvata lugens (death rate %), Susceptible population ([5]; throughput 0.01 mg/seedling): 100%
Insecticidal effects against Nilaparvata lugens (death rate %), Susceptible population ([5]; throughput 0.05 mg/seedling): 100%
Mortality of single agent against Callosobruchus chinensis (Callosobruchus chinensis): 40%

Spinosad
Theoretical value by Colby's equation (Naranga aenescens; Naranga aenescens, single agent 0.005 mg/seedling (other component 0)): 40%
Mortality of single agent against Naranga aenescens (Naranga aenescens; single agent 0.005 mg/seedling): 40%
Theoretical value by Colby's equation (Chilo suppressalis; Chilo suppressalis, single agent 0.002 mg/seedling (other component 0)): 80%
Mortality of single agent against Chilo suppressalis (Chilo suppressalis; single agent 0.002 mg/seedling): 80%
Theoretical value by Colby's equation (Laodelphax striatella): 0%
Mortality of single agent against Laodelphax striatella (Laodelphax striatella; soil irrigation): 0%
Theoretical value by Colby's equation (Plutella xylostella; Plutella xylostella, single agent 0.01 ppm (other component 0)): 11%
Mortality of single agent against Plutella xylostella (Plutella xylostella; single agent 0.01 ppm, cabbage leaf disk spray, three days): 11%
